± gives the expanded uncertainty stated by the source.
Assay: xn = mol fraction of the nth substance listed
Details: 101 kPa, Liquid; for mass density: Vibrating tube method

NCCO.O=CO [2-hydroxyethylammonium formate] + CO
Details	mass density [kg/m3]	speed of sound [m/s]
305.65 K, x2 = 0	–	1690.8 ± 9.8
305.65 K, x2 = 0.055	–	1708.1 ± 9.7
305.65 K, x2 = 0.098	–	1696.5 ± 9.6
305.65 K, x2 = 0.193	–	1665.8 ± 9.2
305.65 K, x2 = 0.296	–	1628.2 ± 8.9
305.65 K, x2 = 0.399	–	1584.1 ± 8.6
305.65 K, x2 = 0.5	–	1532.8 ± 8.2
305.65 K, x2 = 0.598	–	1474 ± 7.8
305.65 K, x2 = 0.701	–	1403.2 ± 7.5
305.65 K, x2 = 0.799	–	1318 ± 7
305.65 K, x2 = 0.9	–	1213.2 ± 6.5
305.65 K, x2 = 0.951	–	1148.9 ± 6.2
308.15 K, x2 = 0	1169.39 ± 31	1684.8 ± 9.7
308.15 K, x2 = 0.055	1162.82 ± 31	1702.9 ± 9.7
308.15 K, x2 = 0.098	1156.3 ± 30	1691.3 ± 9.5
308.15 K, x2 = 0.193	1139.55 ± 30	1660.5 ± 9.2
308.15 K, x2 = 0.296	1118.84 ± 30	1622.8 ± 8.9
308.15 K, x2 = 0.399	1094.27 ± 30	1578.5 ± 8.5
308.15 K, x2 = 0.5	1065.38 ± 30	1527.1 ± 8.2
308.15 K, x2 = 0.598	1031.9 ± 30	1468 ± 7.8
308.15 K, x2 = 0.701	990.06 ± 30	1396.8 ± 7.4
308.15 K, x2 = 0.799	937.959 ± 30	1311.2 ± 7
308.15 K, x2 = 0.9	869.95 ± 30	1206 ± 6.5
308.15 K, x2 = 0.951	826.572 ± 30	1141.2 ± 6.2
310.65 K, x2 = 0	1167.62 ± 31	1678.7 ± 9.7
310.65 K, x2 = 0.055	1161.16 ± 31	1697.8 ± 9.7
310.65 K, x2 = 0.098	1154.64 ± 30	1686.1 ± 9.5
310.65 K, x2 = 0.193	1137.87 ± 30	1655.3 ± 9.2
310.65 K, x2 = 0.296	1117.13 ± 30	1617.4 ± 8.9
310.65 K, x2 = 0.399	1092.53 ± 30	1573 ± 8.5
310.65 K, x2 = 0.5	1063.59 ± 30	1521.4 ± 8.2
310.65 K, x2 = 0.598	1030.06 ± 30	1462 ± 7.8
310.65 K, x2 = 0.701	988.146 ± 30	1390.5 ± 7.4
310.65 K, x2 = 0.799	935.95 ± 30	1304.5 ± 7
310.65 K, x2 = 0.9	867.803 ± 30	1198.7 ± 6.5
310.65 K, x2 = 0.951	824.316 ± 30	1133.6 ± 6.2
313.15 K, x2 = 0	1165.84 ± 31	1672.7 ± 9.7
313.15 K, x2 = 0.055	1159.51 ± 31	1692.7 ± 9.6
313.15 K, x2 = 0.098	1152.98 ± 30	1681 ± 9.5
313.15 K, x2 = 0.193	1136.19 ± 30	1650 ± 9.2
313.15 K, x2 = 0.296	1115.42 ± 30	1612 ± 8.8
313.15 K, x2 = 0.399	1090.78 ± 30	1567.5 ± 8.5
313.15 K, x2 = 0.5	1061.81 ± 30	1515.6 ± 8.2
313.15 K, x2 = 0.598	1028.22 ± 30	1456 ± 7.8
313.15 K, x2 = 0.701	986.228 ± 30	1384.2 ± 7.4
313.15 K, x2 = 0.799	933.936 ± 30	1297.8 ± 6.9
313.15 K, x2 = 0.9	865.647 ± 30	1191.4 ± 6.4
313.15 K, x2 = 0.951	822.053 ± 30	1125.9 ± 6.2
315.65 K, x2 = 0	1164.06 ± 31	1666.7 ± 9.7
315.65 K, x2 = 0.055	1157.86 ± 31	1687.6 ± 9.6
315.65 K, x2 = 0.098	1151.33 ± 30	1675.8 ± 9.5
315.65 K, x2 = 0.193	1134.51 ± 30	1644.8 ± 9.2
315.65 K, x2 = 0.296	1113.71 ± 30	1606.7 ± 8.8
315.65 K, x2 = 0.399	1089.03 ± 30	1561.9 ± 8.5
315.65 K, x2 = 0.5	1060.02 ± 30	1509.9 ± 8.1
315.65 K, x2 = 0.598	1026.37 ± 30	1450.1 ± 7.8
315.65 K, x2 = 0.701	984.31 ± 30	1377.9 ± 7.4
315.65 K, x2 = 0.799	931.919 ± 30	1291.2 ± 6.9
315.65 K, x2 = 0.9	863.489 ± 30	1184.2 ± 6.4
315.65 K, x2 = 0.951	819.788 ± 30	1118.4 ± 6.1
318.15 K, x2 = 0	1162.29 ± 31	1660.8 ± 9.6
318.15 K, x2 = 0.055	1156.21 ± 31	1682.5 ± 9.6
318.15 K, x2 = 0.098	1149.67 ± 30	1670.7 ± 9.5
318.15 K, x2 = 0.193	1132.83 ± 30	1639.5 ± 9.2
318.15 K, x2 = 0.296	1112 ± 30	1601.3 ± 8.8
318.15 K, x2 = 0.399	1087.29 ± 30	1556.4 ± 8.5
318.15 K, x2 = 0.5	1058.22 ± 30	1504.2 ± 8.1
318.15 K, x2 = 0.598	1024.52 ± 30	1444.2 ± 7.7
318.15 K, x2 = 0.701	982.388 ± 30	1371.7 ± 7.3
318.15 K, x2 = 0.799	929.9 ± 30	1284.6 ± 6.9
318.15 K, x2 = 0.9	861.326 ± 30	1177.1 ± 6.4
318.15 K, x2 = 0.951	817.518 ± 30	1110.9 ± 6.1
320.65 K, x2 = 0	1160.51 ± 31	1654.8 ± 9.6
320.65 K, x2 = 0.055	1154.57 ± 31	1677.4 ± 9.6
320.65 K, x2 = 0.098	1148.03 ± 30	1665.5 ± 9.4
320.65 K, x2 = 0.193	1131.15 ± 30	1634.3 ± 9.1
320.65 K, x2 = 0.296	1110.29 ± 30	1596 ± 8.8
320.65 K, x2 = 0.399	1085.54 ± 30	1550.9 ± 8.4
320.65 K, x2 = 0.5	1056.43 ± 30	1498.5 ± 8.1
320.65 K, x2 = 0.598	1022.67 ± 30	1438.3 ± 7.7
320.65 K, x2 = 0.701	980.467 ± 30	1365.5 ± 7.3
320.65 K, x2 = 0.799	927.874 ± 30	1278 ± 6.9
320.65 K, x2 = 0.9	859.158 ± 30	1170 ± 6.4
320.65 K, x2 = 0.951	815.245 ± 30	1103.5 ± 6.1
323.15 K, x2 = 0	1158.73 ± 31	1648.9 ± 9.6
323.15 K, x2 = 0.055	1152.94 ± 31	1672.4 ± 9.6
323.15 K, x2 = 0.098	1146.39 ± 30	1660.5 ± 9.4
323.15 K, x2 = 0.193	1129.49 ± 30	1629.2 ± 9.1
323.15 K, x2 = 0.296	1108.59 ± 30	1590.7 ± 8.8
323.15 K, x2 = 0.399	1083.8 ± 30	1545.5 ± 8.4
323.15 K, x2 = 0.5	1054.64 ± 30	1492.9 ± 8.1
323.15 K, x2 = 0.598	1020.83 ± 30	1432.5 ± 7.7
323.15 K, x2 = 0.701	978.549 ± 30	1359.5 ± 7.3
323.15 K, x2 = 0.799	925.853 ± 30	1271.4 ± 6.8
323.15 K, x2 = 0.9	856.995 ± 30	1163 ± 6.3
323.15 K, x2 = 0.951	812.98 ± 30	1096.1 ± 6
